This is an account of results in ChEMBL document CHEMBL1126339, “HMG-CoA reductase inhibitors 4. Tetrazole series: conformational constraints and structural requirements at the hydrophobic domain” (Bioorg Med Chem Lett, 1992).

Molecules are shown by their SMILES. pIC50: −log10 of the molar value.

The target in this assay is T1, 3-hydroxy-3-methylglutaryl-coenzyme A reductase (Rattus norvegicus, UniProt P51639).
T1 sequence (P51639 whole entry): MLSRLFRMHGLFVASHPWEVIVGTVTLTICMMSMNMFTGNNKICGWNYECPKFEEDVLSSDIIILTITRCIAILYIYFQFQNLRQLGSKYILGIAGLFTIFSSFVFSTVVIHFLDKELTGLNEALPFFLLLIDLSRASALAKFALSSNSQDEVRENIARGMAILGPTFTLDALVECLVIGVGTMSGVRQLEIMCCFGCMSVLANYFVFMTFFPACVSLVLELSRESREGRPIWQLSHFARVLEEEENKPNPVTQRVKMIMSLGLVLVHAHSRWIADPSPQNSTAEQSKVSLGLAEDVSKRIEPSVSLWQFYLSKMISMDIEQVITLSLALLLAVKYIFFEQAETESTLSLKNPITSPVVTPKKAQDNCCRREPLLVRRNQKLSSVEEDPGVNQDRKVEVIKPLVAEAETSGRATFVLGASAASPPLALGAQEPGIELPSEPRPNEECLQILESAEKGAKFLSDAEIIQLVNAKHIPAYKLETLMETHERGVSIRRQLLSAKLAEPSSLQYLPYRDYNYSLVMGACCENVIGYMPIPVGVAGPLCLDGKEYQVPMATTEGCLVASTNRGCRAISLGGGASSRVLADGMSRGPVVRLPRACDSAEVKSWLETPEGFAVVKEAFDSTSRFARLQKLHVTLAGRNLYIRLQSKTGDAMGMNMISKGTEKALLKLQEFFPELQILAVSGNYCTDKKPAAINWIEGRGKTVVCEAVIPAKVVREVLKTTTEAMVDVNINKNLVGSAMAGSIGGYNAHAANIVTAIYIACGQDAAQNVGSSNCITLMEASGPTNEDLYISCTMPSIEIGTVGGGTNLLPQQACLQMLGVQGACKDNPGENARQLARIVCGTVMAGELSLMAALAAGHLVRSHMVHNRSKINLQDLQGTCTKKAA
Briefly: Compound was tested for its inhibitory activity against rat liver microsomal HMG-CoA reductase. (Liver microsomes are a subcellular fraction often used to study metabolism.)

For the compound `Cn1nnnc1C(CCC(O)CC(O)CC(=O)O)Cc1ccc(F)cc1` (stereo unspecified), the pIC50 was < 3.60.

As for `Cn1nnnc1C(=C\c1ccc(F)cc1)/C=C/C(O)CC(O)CC(=O)O` (stereo unspecified), the pIC50 was 3.68.

Compound `O=C(O)CC(O)CC(O)/C=C/c1c(-c2ccc(F)cc2)c2ccccc2n2nnnc12` (stereo unspecified) had a pIC50 of 5.34.

In the case of `Cn1nnnc1C(/C=C/C(O)CC(O)CC(=O)O)=C(c1ccc(F)cc1)c1ccc(F)cc1` (stereo unspecified), the pIC50 was 7.37.

`Cn1nnnc1C(/C=C/C(O)CC(O)CC(=O)O)=C/c1ccc(F)cc1` (stereo unspecified): the pIC50 was < 3.60.

Consider `Cn1nnnc1C(/C=C/C(O)CC(O)CC(=O)O)=C1c2ccc(F)cc2-c2cc(F)ccc21` (stereo unspecified), for which the pIC50 was < 5.39.

As a reminder, the pIC50 is the negative decadic logarithm of the IC50, by convention in mol/L.
